This note sets out measurements from PubChem BioAssay AID192 (DTP/NCI, 2004).

SMILES strings stand for the structures. Values joined by “and” are separate entries in the source; they are usually repeats but may differ in a detail not shown here. Equal values may be shown once. Inconclusive results and toxic doses are left out.

The test system of the assay is BDF1 mice, B16 melanoma ip, median survival T/C. Nature of the assay: NCI In Vivo Anticancer Drug Screen. Data for tumor model B16 Melanoma (intraperitoneal) in B6D2F1 (BDF1) mice. Particulars: endpoint: median survival time, higher = longer survival. A digest of the protocol:
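Each result divides a survival or tumor-size measurement in the compound-treated group by the same measurement in the vehicle group.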

Where [1] appears, read: dose: 100.0 mg/kg/injection, schedule: Q01DX009 (ip), vehicle: saline with Tween-80.
Setting [2] is: dose: 25.0 mg/kg/injection, schedule: Q01DX009 (ip), vehicle: Klucel (hydroxypropylcellulose) (HPC).
The mark [3] stands for this setting: dose: 50.0 mg/kg/injection, schedule: Q01DX009 (ip), vehicle: Klucel (hydroxypropylcellulose) (HPC).
The mark [4] stands for this setting: dose: 100.0 mg/kg/injection, schedule: Q01DX009 (ip), vehicle: Klucel (hydroxypropylcellulose) (HPC).
Setting [5] is: dose: 200.0 mg/kg/injection, schedule: Q01DX009 (ip), vehicle: Klucel (hydroxypropylcellulose) (HPC).
[6] abbreviates: dose: 200.0 mg/kg/injection, schedule: Q01DX009 (ip), vehicle: saline with Tween-80.
Where [7] appears, read: dose: 400.0 mg/kg/injection, schedule: Q01DX009 (ip), vehicle: saline with Tween-80.
[8] abbreviates: dose: 50.0 mg/kg/injection, schedule: Q01DX009 (ip), vehicle: saline.
Setting [9] is: dose: 100.0 mg/kg/injection, schedule: Q01DX009 (ip), vehicle: saline.
[10] abbreviates: dose: 6.25 mg/kg/injection, schedule: Q01DX009 (ip), vehicle: saline.
[11] abbreviates: dose: 12.5 mg/kg/injection, schedule: Q01DX009 (ip), vehicle: saline.
Where [12] appears, read: dose: 25.0 mg/kg/injection, schedule: Q01DX009 (ip), vehicle: saline.
The mark [13] stands for this setting: dose: 12.5 mg/kg/injection, schedule: Q01DX009 (ip), vehicle: Klucel (hydroxypropylcellulose) (HPC).
[14] abbreviates: dose: 400.0 mg/kg/injection, schedule: Q01DX009 (ip), vehicle: Klucel (hydroxypropylcellulose) (HPC).

Turning to `ClCCOCOCCCl`, the T/C is 101 % of control (dose: 20.0 mg/kg/injection, schedule: Q04DX003 (ip), vehicle: Klucel (hydroxypropylcellulose) (HPC)); 89 % of control (dose: 40.0 mg/kg/injection, schedule: Q04DX003 (ip), vehicle: Klucel (hydroxypropylcellulose) (HPC)); 102 % of control (dose: 80.0 mg/kg/injection, schedule: Q04DX003 (ip), vehicle: Klucel (hydroxypropylcellulose) (HPC)).

For `O=C(OCc1ccccc1)C(=O)OCc1ccccc1`, the T/C was 121 % of control under setting [1]; 100 % of control (dose: 100.0 mg/kg/injection, schedule: Q04DX003 (ip), vehicle: saline with Tween-80); 107 % of control (dose: 200.0 mg/kg/injection, schedule: Q04DX003 (ip), vehicle: saline with Tween-80).

For the compound `CC(=O)c1ccccc1I`, the T/C under setting [2] is 102 % of control and 113 % of control; the T/C under setting [3] was 105 % of control and 106 % of control; the T/C under setting [4] is 105 % of control and 106 % of control; the T/C under setting [5] is 102 % of control and 106 % of control.

Take `Cc1c([N+](=O)[O-])cc2c(c1[N+](=O)[O-])C(C)(C)CC2(C)C`: the T/C was 95 % of control under setting [1], 86 % of control under setting [6] and 90 % of control under setting [7].

Consider `CC(C)(C)OC(=O)CCC(NC(=O)OCc1ccccc1)C(=O)NN` (configuration not stated), for which the T/C is 97 % of control (dose: 75.0 mg/kg/injection, schedule: Q04DX003 (ip), vehicle: Klucel (hydroxypropylcellulose) (HPC)); 100 % of control (dose: 150.0 mg/kg/injection, schedule: Q04DX003 (ip), vehicle: Klucel (hydroxypropylcellulose) (HPC)); 97 % of control (dose: 300.0 mg/kg/injection, schedule: Q04DX003 (ip), vehicle: Klucel (hydroxypropylcellulose) (HPC)).

On to `Cc1cc(=O)[nH]c2ccc(-c3ccc4[nH]c(=O)cc(C)c4c3)cc12`, for which the T/C reads like this: under setting [4], 96 % of control; under setting [5], 93 % of control.

In the case of `O=[N+]([O-])O.[Ga]`, the T/C by setting is: under setting [8], 102 % of control; under setting [9], 92 % of control.

With `C=C1C(=O)OC2CC(C)C3C4OC4C(O)C3(C)C(O)C12` (configuration not stated), the T/C (dose: 9.38 mg/kg/injection, schedule: Q01DX009 (ip), vehicle: saline) was 94 % of control; the T/C (dose: 18.75 mg/kg/injection, schedule: Q01DX009 (ip), vehicle: saline) is 94 % of control; the T/C (dose: 37.5 mg/kg/injection, schedule: Q01DX009 (ip), vehicle: saline) was 103 % of control.

For the compound `CCCCCCCCC(=O)NCCOC`, the T/C runs as follows: under setting [3], 104 % of control; under setting [4], 101 % of control; under setting [5], 101 % of control.

As to `O=C(O)C(O)C(O)C1[O][Sb][O]C1CO` (configuration not stated), the T/C runs as follows: (dose: 5.0 mg/kg/injection, schedule: Q01DX009 (ip), vehicle: saline) 96 % of control; under setting [9], 100 % of control; (dose: 200.0 mg/kg/injection, schedule: Q01DX009 (ip), vehicle: saline) 88 % of control.

In the case of `CN1C2CCC1CC(OC(c1ccccc1)c1ccccc1)C2` (configuration not stated), the T/C is, setting by setting: (dose: 1.56 mg/kg/injection, schedule: Q01DX009 (ip), vehicle: saline) 102 % of control; (dose: 3.12 mg/kg/injection, schedule: Q01DX009 (ip), vehicle: saline) 107 % of control; under setting [10], 107 % of control; under setting [11], 110 % of control; under setting [12], 107 % of control.

In the case of `COc1ccc(Nc2c3ccccc3nc3ccccc23)cc1`, the T/C (dose: 12.5 mg/kg/injection, schedule: Q01DX009 (ip), vehicle: saline with Tween-80) was 120 % of control.

With `NC(=O)c1ncn2c(=O)n(CCCl)nnc12`, the T/C by setting is: under setting [10], 158 % of control; under setting [11], 216 % of control; under setting [12], 207 % of control; under setting [8], 96 % of control.

Turning to `Cc1cc(Cl)ccc1NC(=O)CCl`, the T/C is 100 % of control under setting [1] and 95 % of control under setting [6].

Consider `COC1=CC(=O)C(O)=C(CC2(C)C(C)CCC3(C)C2CCCC3(C)C)C1=O` (configuration not stated), for which the T/C reads like this: (dose: 3.12 mg/kg/injection, schedule: Q01DX009 (ip), vehicle: Klucel (hydroxypropylcellulose) (HPC)) 91 % of control; (dose: 6.25 mg/kg/injection, schedule: Q01DX009 (ip), vehicle: Klucel (hydroxypropylcellulose) (HPC)) 96 % of control; under setting [13], 96 % of control; under setting [2], 104 % of control; under setting [3], 100 % of control; under setting [4], 100 % of control.

Consider `CCOC(=O)c1c(N)sc2c1CCN(C)C2`, for which the T/C reads like this: (dose: 6.25 mg/kg/injection, schedule: Q04DX003 (ip), vehicle: Klucel (hydroxypropylcellulose) (HPC)) 95 % of control; under setting [13], 100 % of control; (dose: 12.5 mg/kg/injection, schedule: Q04DX003 (ip), vehicle: Klucel (hydroxypropylcellulose) (HPC)) 102 % of control; under setting [2], 102 % of control; (dose: 25.0 mg/kg/injection, schedule: Q04DX003 (ip), vehicle: Klucel (hydroxypropylcellulose) (HPC)) 89 % of control; (dose: 35.0 mg/kg/injection, schedule: Q04DX003 (ip), vehicle: Klucel (hydroxypropylcellulose) (HPC)) 105 % of control. For the same compound, the T/C (dose: 55.0 mg/kg/injection, schedule: Q04DX003 (ip), vehicle: Klucel (hydroxypropylcellulose) (HPC)) was 121 % of control.

`Cc1ccc(S(=O)(=O)N=N/C=C2/C=CC=CN2O)cc1`: the T/C was 108 % of control under setting [2], 114 % of control under setting [3] and 115 % of control under setting [4].

With `CCCCC(CC)COC(=O)/C=C/C(=O)OCC(CC)CCCC` (configuration not stated), the T/C is 90 % of control under setting [5] and 87 % of control under setting [14].

Turning to `CCN(CC)CCCC(C)NC/C=C/CNC(C)CCCN(CC)CC` (configuration not stated), the T/C was 105 % of control under setting [10], 103 % of control under setting [11] and 102 % of control under setting [12].

For `COc1cccc2c1C(=O)c1c(O)c3c(c(O)c1C2=O)CC(O)(C(C)=O)CC3OC1CC(N)C(O)C(C)O1` (configuration not stated), the T/C is 154 % of control (dose: 2.5 mg/kg/injection, schedule: Q01DX007 (ip), vehicle: water); 163 % of control (dose: 2.5 mg/kg/injection, schedule: Q01DX009 (ip), vehicle: water); 154 % of control (dose: 5.0 mg/kg/injection, schedule: Q01DX007 (ip), vehicle: water); 190 % of control (dose: 5.0 mg/kg/injection, schedule: Q01DX009 (ip), vehicle: water); 258 % of control (dose: 5.8 mg/kg/injection, schedule: Q01DX009 (ip), vehicle: saline); 163 % of control (dose: 10.0 mg/kg/injection, schedule: Q01DX007 (ip), vehicle: water). In addition, the T/C by setting is: (dose: 10.0 mg/kg/injection, schedule: Q01DX009 (ip), vehicle: water) 218 % of control; (dose: 11.7 mg/kg/injection, schedule: Q01DX009 (ip), vehicle: saline) 122 % of control and 267 % of control; (dose: 20.0 mg/kg/injection, schedule: Q01DX007 (ip), vehicle: water) 339 % of control; (dose: 20.0 mg/kg/injection, schedule: Q01DX009 (ip), vehicle: water) 231 % of control; (dose: 23.4 mg/kg/injection, schedule: Q01DX009 (ip), vehicle: saline) 116 % of control and 267 % of control; (dose: 23.4 mg/kg/injection, schedule: Q04DX003 (ip), vehicle: saline) 212 % of control. Moreover, the T/C is, setting by setting: (dose: 46.8 mg/kg/injection, schedule: Q04DX003 (ip), vehicle: saline) 275 % of control; (dose: 93.6 mg/kg/injection, schedule: Q04DX003 (ip), vehicle: saline) 275 % of control.

In the case of `COc1ccc(NC(=O)Nc2ccccc2OC)cc1`, the T/C runs as follows: under setting [1], 102 % of control; under setting [6], 115 % of control; under setting [7], 101 % of control.

With `CC(=N\O)/C(C)=N/O.CC(=N\O)/C(C)=N/O.[Fe].c1c[nH]cn1.c1c[nH]cn1`, the T/C by setting is: under setting [4], 100 % of control; under setting [5], 100 % of control.

Consider `CC(=O)OC1c2ccccc2C(=O)C1(OC(C)=O)c1ccccc1` (configuration not stated), for which the T/C by setting is: under setting [3], 102 % of control; under setting [4], 94 % of control; under setting [5], 102 % of control.

Consider `COc1ccc2c(c1)CCC1=C2CCC2(C)C(=O)OC(=O)C12` (configuration not stated), for which the T/C is, setting by setting: under setting [4], 103 % of control; under setting [5], 96 % of control; under setting [14], 100 % of control.
